In patent publication US20250195488A1, “MEDICINE CONTAINING VITAMIN D DERIVATIVE OR PHARMACEUTICALLY ACCEPTABLE SALT OR SOLVATE THEREOF, USED IN COMBINATION WITH IMMUNOMODULATORY SUBSTANCE” (TEEJIN PHARMA LIMITED, priority 2022, published 2025):

Assays:
human VDR = target: T1, human VDR (Homo sapiens, UniProt P11473); assay: Evaluation of VDR transcription activity in human osteoblasts (HOS cells), luciferase reporter; assay type: cell-based; settings: read-out: Activity (EC50 of VDR transcriptional activity)
T1 construct: expressed in transfected cells; host or cells: HOS cells (ATCC), human osteoblast line; pcDNA3 expression vector
T1 sequence (P11473 1-427): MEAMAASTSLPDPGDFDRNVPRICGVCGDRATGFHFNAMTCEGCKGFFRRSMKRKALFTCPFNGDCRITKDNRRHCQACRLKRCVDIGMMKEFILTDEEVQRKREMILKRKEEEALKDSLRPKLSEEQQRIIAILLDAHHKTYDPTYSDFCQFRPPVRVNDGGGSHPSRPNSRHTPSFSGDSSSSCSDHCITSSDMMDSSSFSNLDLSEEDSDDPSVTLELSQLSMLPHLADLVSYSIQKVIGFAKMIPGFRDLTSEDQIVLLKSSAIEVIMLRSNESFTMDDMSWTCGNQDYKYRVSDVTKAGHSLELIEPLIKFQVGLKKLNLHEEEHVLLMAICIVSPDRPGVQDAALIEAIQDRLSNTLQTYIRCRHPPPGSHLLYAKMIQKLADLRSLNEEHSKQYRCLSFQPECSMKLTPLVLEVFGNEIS
T1 sequence (P19793 1-462 partner): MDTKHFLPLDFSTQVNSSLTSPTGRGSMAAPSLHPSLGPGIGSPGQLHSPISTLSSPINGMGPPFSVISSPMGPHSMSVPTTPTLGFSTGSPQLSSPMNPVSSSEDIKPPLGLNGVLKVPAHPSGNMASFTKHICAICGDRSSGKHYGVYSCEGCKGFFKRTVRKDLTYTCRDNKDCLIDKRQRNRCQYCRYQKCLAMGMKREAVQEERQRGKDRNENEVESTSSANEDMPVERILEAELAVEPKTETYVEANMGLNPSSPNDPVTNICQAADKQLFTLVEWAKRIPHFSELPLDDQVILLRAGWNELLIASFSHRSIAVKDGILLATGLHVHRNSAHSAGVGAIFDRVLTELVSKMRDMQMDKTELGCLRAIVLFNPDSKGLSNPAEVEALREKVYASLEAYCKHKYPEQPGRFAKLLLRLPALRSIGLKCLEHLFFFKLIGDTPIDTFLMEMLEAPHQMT
Procedure: (1) A reporter vector was constructed using pGL4.26 vector (Promega Corporation) and incorporating a sequence of DR3 (×4) gene promoter portion upstream of the luciferase gene. An expression vector was constructed by inserting a DNA sequence encoding human VDR and human RXRα into pcDNA3 vector (Thermo Fisher Scientific, Inc.). Human RenillaLuc-CMV vector (Promega Corporation) was used for the correction of gene transfer efficiency. HOS cells (ATCC) were cultured in DMEM medium containing 10% FBS under the condition of 37° C. and 5% CO2, and passaged every 2 or 3 days. (2) The passaged cells were collected by centrifugation and dispersed in phenol red free DMEM medium containing deactivated and 5% charcoal-treated fetal bovine serum (CSS) at a density of 4×10^5 cells/mL, and then the various vectors described in (1) were introduced using Lipofectamine LTX (Thermo Fisher Scientific, Inc.) reagent at a ratio of 0.25 mL per 1 mL of the cell solution. […] (3) After the incubation for 21 hours under the condition of 37° C. and 5% CO2, the luciferase activity was measured by multi-label counter EnVision (PerkinElmer, Inc.) using Dual-Glo Luciferase Assay kit (Promega Corporation). At the same time, the activity of Renilla luciferase was measured and used to correct the gene transfer efficiency.

[1] = system: rat oligodendrocyte progenitor cells; assay: Promotive activity of rat oligodendrocyte progenitor cell differentiation-2 (immunostaining of MBP); assay type: cell-based; settings: Test 2; vitamin D derivative 2 μM, T3 30 nM, 4 days; DMSO 0.07
Procedure: The promotive activity of oligodendrocyte progenitor cell (OPC) differentiation of the vitamin D derivatives was evaluated by immunostaining of MBP.
Subsequently, oligodendrocyte progenitor cell separation medium was added to the flask, and the mixture was similarly shaken for about 22 hours (37° C., 200 rpm), and the supernatant was collected to prepare oligodendrocyte progenitor cells.

EC50 (human VDR) | SMILES | mean (number of MBP-positive cells/number of Hoechst33342-positive cells) [1]
0.1 to 1 µM | C[C@H](CN1CC[C@@H](F)C1)[C@H]1CC[C@H]2/C(=C/C=C3C[C@@H](O)C[C@H](O)C3)CCC[C@]12C [Compound B013, (1R,3R)-5-(2-((1R,3aS,7aR,E)-1-((S)-1-((R)-3-fluoropyrrolidin-1-yl)propan-2-yl)-7a-methyloctahydro-4H-inden-4-ylidene)ethylidene)cyclohexane-1,3-diol] | 
 | C[C@H](CN1CC[C@@H](CC(F)F)C1)[C@H]1CC[C@H]2/C(=C/C=C3C[C@@H](O)C[C@H](O)C3)CCC[C@]12C [Compound B043, (1R,3R)-5-(2-((1R,3aS,7aR,E)-1-((S)-1-((S)-3-(2,2-difluoroethyl)pyrrolidin-1-yl)propan-2-yl)-7a-methyloctahydro-4H-inden-4-ylidene)ethylidene)cyclohexane-1,3-diol] | 0.53
